{"source": "paper PMC8038331", "about": "“Discovery of a Novel Acetylcholinesterase Inhibitor by Fragment-Based Design and Virtual Screening” (Molecules, 2021)", "key": {"[1]": {"test_system": "murine neuroblastoma neuro-2A cells", "conditions": "read-out: Neurotoxicity on neuro-2A cells (IC50); cited from earlier work"}, "[2]": {"test": "Neurotoxicity test, MTT-dye reduction assay on neuro-2A cells", "assay_type": "cell-based, murine", "conditions": "mouse, neuro-2A neuroblastoma cells, 72 h incubation", "protocol": "The cytotoxicity of compound 8 was tested on neuro-2A cells as described in the Materials and Мethods section.\nTo assess the neurocytotoxicity of the selected compound, murine neuroblastoma neuro-2A cells (German collection DSMZ, Braunschweig, Germany) were used. They were cultivated under standard conditions: complete medium (90% DMEM, 10% heat-inactivated FBS, and non-essential amino acids); 37 °C and 5% CO2 in a fully humidified atmosphere. The cell line was kept in the logarithmic growth phase by splitting 1:4 once a week using trypsin/EDTA. About 30% of the cells grew like neuronal cells. For the experimental evaluation of the cytotoxicity, the cells were plated in 96-well flat-bottomed plates at the recommended density of around 1100 cells/25 cm^2. After 24 h, the cells were treated with a series of concentrations (100, 50, 25, 12.5, 6.25 µM) of the tested compound, and after 72 h incubation, an MTT-dye reduction assay was performed. MTT stock solution (10 mg/mL in PBS) was added (0.01 mL/well) at the end of incubation. Plates were further incubated at 37 °C for 4 h. Next, the formazan crystals were dissolved by the addition of 0.110 mL/well 5% formic acid in 2-propanol (v/v). Absorption was measured at 580 nm wavelength on an automated ELISA reader Labexim LMR1. […]"}, "[3]": {"molecular_target": "T1, acetylcholinesterase from Electrophorus electricus (eeAChE) (Electrophorus electricus, UniProt O42275)", "T1 construct": "purchased Sigma-Aldrich", "T1 sequence (O42275 24-633)": "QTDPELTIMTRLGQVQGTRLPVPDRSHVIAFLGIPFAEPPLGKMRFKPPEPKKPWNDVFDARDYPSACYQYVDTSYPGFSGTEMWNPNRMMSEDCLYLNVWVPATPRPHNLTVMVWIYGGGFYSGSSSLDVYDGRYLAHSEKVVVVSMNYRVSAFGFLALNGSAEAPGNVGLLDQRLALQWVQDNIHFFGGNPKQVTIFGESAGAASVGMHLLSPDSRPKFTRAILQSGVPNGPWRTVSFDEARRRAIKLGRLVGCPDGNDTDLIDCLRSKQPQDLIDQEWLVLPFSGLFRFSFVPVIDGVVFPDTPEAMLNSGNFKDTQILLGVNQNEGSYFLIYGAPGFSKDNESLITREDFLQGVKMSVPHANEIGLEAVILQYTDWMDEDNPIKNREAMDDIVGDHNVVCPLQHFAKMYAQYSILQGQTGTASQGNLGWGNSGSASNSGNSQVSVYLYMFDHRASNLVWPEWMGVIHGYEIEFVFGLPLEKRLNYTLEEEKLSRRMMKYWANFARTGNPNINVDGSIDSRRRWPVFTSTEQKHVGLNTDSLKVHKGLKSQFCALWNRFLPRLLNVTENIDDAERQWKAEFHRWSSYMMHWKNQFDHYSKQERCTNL", "test": "biochemical", "assay_type": "biochemical", "protocol": "However, the docking simulations were conducted on human AChE (rhAChE).\nThe microplate assay used for measuring AChE inhibitory activity was as described by Ellman with the modifications added by López. Acetylthiocholine iodide (ATCI) in a solution with 5,5′-dithiobis(2-nitrobenzoic acid) (DTNB) was used as a substrate for the acetylcholinesterase from Electrophorus electricus (Steinheim, Sigma-Aldrich, Germany). 50 μL of AChE (0.25 U/mL) dissolved in phosphate buffer (8 mM K2HPO4, 2.3 mM NaH2PO4, 0.15 M NaCl, pH 7.5) and 50 μL of the sample dissolved in the same buffer were added to the wells. The plates were incubated for 30 min at room temperature before the addition of 100 μL of the substrate solution (0.04 M Na2HPO4, 0.2 mM DTNB, 0.24 mM ATCI, pH 7.5). […] Enzyme activity was calculated as an inhibition percentage compared to an assay using a buffer without any inhibitor. […] The AChE inhibitory data were analyzed with the software package Prism 9 (GraphPad Inc., San Diego, USA). The IC50 values were measured in triplicate, and the results are presented as means ± SD."}}, "note": "pIC50: −log10 of the molar value. Values joined by “and” are separate entries in the source; they are usually repeats but may differ in a detail not shown here. Equal values may be shown once."}
{"smiles": "COc1ccc2c3c1O[C@H]1C[C@@H](O)C=C[C@@]31CCN(C)C2", "note": "[GAL, Galantamine]", "values": [{"measurement": "pIC50", "setting": "[1]", "value": "< 4.30"}]}
{"smiles": "COc1ccc2c3c1O[C@H]1C[C@@H](O)C=C[C@@]31CCN(CCNC(=O)CCc1ccccc1-c1ccccc1)C2", "note": "[Compound 8, 3-(biphenyl-2-yl)-N-{2-[(4aS,6R,8aS)-6-hydroxy-3-methoxy-5,6,9,10-tetrahydro-4aH-[1]benzofuro[3a,3,2-ef][2]benzazepin-11(12H)-yl]ethyl}propanamide]", "values": [{"measurement": "IC50 at 72 h", "setting": "[2]", "value": "> 100000", "unit": "nM"}, {"measurement": "Times more active than GAL (AChE inhibition)", "setting": "[3]", "value": 68, "unit": "times"}, {"measurement": "pIC50", "setting": "[3]; eeAChE, Ellman's method, 30 min preincubation, mean ± SD, triplicate, read-out: Inhibitory activity on eeAChE (IC50)", "value": "7.55 and 7.56"}]}
